Measured values reported in patent US20150359789A1, “METHODS FOR TREATING PRURITUS” (TREVI THERAPEUTICS, INC., priority 2014, published 2015).
Structures can show the parent of a compound that is named as a salt.

Assay: Oral pharmacokinetics of nalbuphine HCl solution versus tablets, fed and fasted, across studies
Conditions: human, plasma

Structure (SMILES): Oc1ccc2c3c1O[C@H]1[C@@H](O)CC[C@@]4(O)[C@@H](C2)N(CC2CCC2)CC[C@]314 [nalbuphine, 17-(cyclobutylmethyl)-4,5α-epoxymorphinan-3,6α,14-triol, hydrochloride]
- Tmax: 0.5 to 1 h
- half-life: 6.87 to 6.99 h
